We go through 55 substances from patent publication US7267983B2 (priority 2000, dated 2007).

Values joined by “and” are separate entries in the source; they are usually repeats but may differ in a detail not shown here. Equal values may be shown once.

The subject of this test is β-toxin production by Clostridium perfringens. The class given is cell-based. Further details: mean total toxin production: unit not given here.
Regarding ALFHE: pentapeptide, the toxin per cell result was “increased toxin per cell above the mean”.

In the case of FSFVE: pentapeptide, the “mean total toxin production” value is on record as 8.727.

Take DKAL: tetrapeptide: the “total toxin ratio (total toxin with test peptide divided by base media total toxin)” value is recorded as “increased the total toxin ratio”.

Take MHAPP: pentapeptide: the toxin per cell entry is listed as “increased toxin per cell above the mean”.

In the case of VDLLG: pentapeptide, the toxin per cell entry was “increased toxin per cell above the mean”.

On to QNDVY: pentapeptide, for which the “beta toxin accumulation in the culture supernatant” value is “enhance beta toxin accumulation” and the toxin per cell entry was “increased toxin per cell above the mean”.

In the case of YEQQN: pentapeptide, the toxin per cell result is listed as “increased toxin per cell above the mean”.

Consider NQLEV: pentapeptide, for which the “mean total toxin production” value is 7.81.

As to YEYIY: pentapeptide, the toxin per cell result is reported as “increased toxin per cell above the mean”.

For KFIFE: pentapeptide, the toxin per cell entry is on record as “increased toxin per cell above the mean”.

Take ETLNL: pentapeptide: the “mean total toxin production” value worked out at 8.28.

With LSFIE: pentapeptide, the toxin per cell result is on record as “increased toxin per cell above the mean”.

As to PELME: pentapeptide, the toxin per cell result is “increased toxin per cell above the mean”.

In the case of DKTNG: pentapeptide, the toxin per cell result is “increased toxin per cell above the mean”.

Take NNNNN: pentapeptide: the toxin production entry is reported as “toxin production above the mean obtained in 0.5% hydrolysate media”.

For the substance FVPEK: pentapeptide, the toxin per cell result is “increased toxin per cell above the mean”.

In the case of NEYLY: pentapeptide, the “mean total toxin production” value is given as 8.665.

Take FMSTA: pentapeptide: the toxin per cell entry is “increased toxin per cell above the mean”.

For the substance SNGIY: pentapeptide, the toxin per cell entry is listed as “increased toxin per cell above the mean”.

As for ETVNF: pentapeptide, the toxin per cell entry was “increased toxin per cell above the mean”.

In the case of FEFVG: pentapeptide, the “amount of toxin produced per cell” value is “doubled”; the “mean total toxin production” value was 8.79 and 8.787; the “total toxin in the two-point ELISA over optimized base medium alone” value was “about 2.2 ×”; the “total toxin produced by the culture” value was “near doubling”.

As to IKLAS: pentapeptide, the “mean total toxin production” value worked out at 7.7475.

For the substance FEFGV: pentapeptide, the toxin per cell result is listed as “increased toxin per cell above the mean”.

Take NEGLG: pentapeptide: the toxin per cell entry is “increased toxin per cell above the mean”.

Consider MMELE: pentapeptide, for which the toxin per cell entry was “increased toxin per cell above the mean”.

For the substance FDIST: pentapeptide, the “mean total toxin production” value is given as 8.395.

SQLEL: pentapeptide: the “mean total toxin production” value stood at 8.284.

Turning to MPNNF: pentapeptide, the toxin per cell result was “increased toxin per cell above the mean”.

With FSLLE: pentapeptide, the “mean total toxin production” value was found to be 8.855.

Take HAPAY: pentapeptide: the toxin per cell entry is listed as “increased toxin per cell above the mean”.

In the case of LPDLF: pentapeptide, the toxin per cell entry was “increased toxin per cell above the mean”.

VEFTN: pentapeptide: the toxin per cell entry is “increased toxin per cell above the mean”.

As for DMLQT: pentapeptide, the toxin per cell result is given as “increased toxin per cell above the mean”.

On to KPLDV: pentapeptide, for which the toxin per cell entry is recorded as “increased toxin per cell above the mean”.

As to VHVYQ: pentapeptide, the toxin production entry was “toxin production above the mean obtained in 0.5% hydrolysate media”.

In the case of YENLY: pentapeptide, the toxin per cell entry is listed as “increased toxin per cell above the mean”.

With YEYIG: pentapeptide, the “total toxin mean value” was “greater than twice that obtained using 3.5% hydrolysate alone”.

Take TKPFF: pentapeptide: the toxin per cell result is listed as “increased toxin per cell above the mean”.

Consider KFIEK: pentapeptide, for which the toxin per cell result is recorded as “increased toxin per cell above the mean”.

For EKALE: pentapeptide, the toxin per cell entry was “increased toxin per cell above the mean”.

For the substance DTHHI: pentapeptide, the toxin per cell entry is “increased toxin per cell above the mean”.

NLTEL: pentapeptide: the “mean total toxin production” value amounted to 8.321.

Consider PLFEQ: pentapeptide, for which the toxin per cell entry was “increased toxin per cell above the mean”.

Regarding LSAL: tetrapeptide, the toxin production result is on record as “significantly inhibited toxin production”.

For the substance VNVQA: pentapeptide, the toxin per cell result is “increased toxin per cell above the mean”.

Regarding KTVGI: pentapeptide, the toxin per cell result is listed as “increased toxin per cell above the mean”.

For the substance GDYVS: pentapeptide, the toxin per cell result was “increased toxin per cell above the mean”.

With HTVEL: pentapeptide, the “beta toxin accumulation in the culture supernatant” value is recorded as “enhance beta toxin accumulation” and the toxin per cell entry is given as “increased toxin per cell above the mean”.

With SYIME: pentapeptide, the toxin per cell result is “increased toxin per cell above the mean”.

For SVMEM: pentapeptide, the toxin per cell entry is given as “increased toxin per cell above the mean”.

On to ESLQM: pentapeptide, for which the toxin per cell entry was “increased toxin per cell above the mean”.

For LADTF: pentapeptide, the toxin per cell result is given as “increased toxin per cell above the mean”.

For GGMPG: pentapeptide, the toxin per cell entry was “increased toxin per cell above the mean”.

For the substance ELSPH: pentapeptide, the toxin per cell result is listed as “increased toxin per cell above the mean”.

GYPEV: pentapeptide: the toxin per cell entry is “increased toxin per cell above the mean”.
